Data from patent publication US10570179B2, “Substituted urea depsipeptide analogs as activators of the CLPP endopeptidase” (priority 2016, dated 2020).
Converted amounts (≈) assume the structure as drawn. Like-named read-outs stand apart in the source and are kept apart here. Numbered stars: 1 amine (or outer) side, 2 acyl side, 3 side chain; on linkers, the order of the positions; unused ones are H or OH. Bridge positions count the residues as written; N and C are the ends. Square brackets hold non-standard residues; d marks the D form. Peptide text beside a SMILES is read from it. * marks the point of attachment. X5 = O=C([C@@H]1C[C@@H](OP(=O)(O)O)CN1[*:1])[*:2]; Piperazine(2S-CO,4-Me) = CN1CCN[C@H](C(=O)O)C1; Morpholine(3S-CO) = O=C(O)[C@@H]1COCCN1; Phe(3-Me) = Cc1cccc(C[C@H](N)C(=O)O)c1; NH(4-Cl-2-F-phenyl) = Fc1cc(Cl)ccc1N*; Pro(4R-Me) = C[C@H]1CN[C@H](C(=O)O)C1; Hyp = O=C(O)[C@@H]1C[C@@H](O)CN1; NH(4-Et-phenyl) = CCc1ccc(N*)cc1; NH(4-Me-phenyl) = Cc1ccc(N*)cc1; aThr = C[C@H](O)[C@H](N)C(=O)O; Pip = O=C(O)[C@@H]1CCCCN1; X3 = c1cc2c(cc1N*)OCCO2; CO = O=C([*:1])[*:2]

Legend:
[1] = Microsomal metabolic stability; format: in vitro ADME, human
[2] = Plasma protein binding, rapid equilibrium dialysis; format: in vitro ADME, human; details: 10 μM
Summary of the method: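 Compound spiked at 10 μM (0.1% DMSO) into human plasma, dialysed against DPBS pH 7.4 across 8 K MWCO RED membrane for 4 h at 37 °C with shaking. Both chambers quantified by LC-MS against warfarin internal standard; % free = buffer/plasma concentration ×100, % bound = 100 − % free.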

[3] = Solubility determination; format: physicochemical; details: for solubility kinetic at 10 min: 22 °C, aqueous buffer, kinetic from dmso stock
Summary of the method: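 DMSO stock spiked into DPBS at 100 µM final, in triplicate, shaken 10 min, then centrifuged 20 min at 22 °C. Supernatant quantified by UPLC-UV and single-ion-recording MS against DMSO calibration standards (0.098–100 µM), using 1/x²-weighted linear regression.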

[4] = microsomal metabolic stability half-life, human liver microsomes
[5] = plasma binding, % Bound, human plasma
[6] = solubility in DPBS, 100 μM test samples, LCMS, read-out: LCMS

Row | SMILES | Human ([1]; human, pH 7.4) | Human ([2]; human, 4 h, pH 7.4) [%] | μsol (μM) [3] [µM] | solubility kinetic at 10 min [3] [µM] | Human [1, 4] | Human [2, 5] [%] | solubility kinetic at 10 min [3, 6] [µM] | μsol (μM) ([3]; solubility) [µM]
1 | Cc1cccc(C[C@H](NC(=O)Nc2ccc3c(c2)OCCO3)C(=O)N[C@@H]2C(=O)N3CCC[C@H]3C(=O)N3CCCC[C@H]3C(=O)N[C@@H](C)C(=O)N3C[C@H](C)C[C@H]3C(=O)O[C@H]2C)c1 [Compound 21, (S)-2-(3-(2,3-DIHYDROBENZO[B][1,4]DIOXIN-6-YL)UREIDO)-3-(M-TOLYL)-N-((2R,6S,8AS,14AS,20S,21S,23AS)-2,6,21-TRIMETHYL-5,8,14,19,23-PENTAOXOOCTADECAHYDRO-1H,5H,14H,19H-PYRIDO[2,1-I]DIPYRROLO[2,1-C:2′,1′-L][1]OXA[4,7,10,13]TETRAAZACYCLOHEXADECIN-20-YL)PROPANAMIDE] ({X3-CO}-[Phe(3-Me)][aThr]P[Pip]A[Pro(4R-Me)]; ester 2-C) | 4.49 ± 0.68 h | 97.3 ± 0.1 | 36.8 ± 1.6 | 30.6 ± 0.7 (≈ 25.4 µg/mL) | – | – | – | –
2 | Cc1cccc(C[C@H](NC(=O)Nc2ccc3c(c2)OCCO3)C(=O)N[C@H]2COC(=O)[C@@H]3C[C@@H](C)CN3C(=O)[C@H](C)NC(=O)[C@@H]3CCCCN3C(=O)[C@@H]3CCCN3C2=O)c1 [Compound 22, (S)-2-(3-(2,3-DIHYDROBENZO[B][1,4]DIOXIN-6-YL)UREIDO)-N-((2R,6S,8AS,14AS,20S,23AS)-2,6-DIMETHYL-5,8,14,19,23-PENTAOXOOCTADECAHYDRO-1H,5H,14H,19H-PYRIDO[2,1-I]DIPYRROLO[2,1-C:2′,1′-L][1]OXA[4,7,10,13]TETRAAZACYCLOHEXADECIN-20-YL)-3-(M-TOLYL)PROPANAMIDE] | 3.57 ± 0.52 h | 97.1 ± 0.2 | 7.6 ± 0.3 | 3.3 ± 0.2 (≈ 2.69 µg/mL) | – | – | – | –
3 | Cc1cccc(C[C@H](NC(=O)Nc2ccc3c(c2)OCO3)C(=O)N[C@H]2COC(=O)[C@@H]3C[C@@H](C)CN3C(=O)[C@H](C)NC(=O)[C@@H]3CCCCN3C(=O)[C@@H]3CCCN3C2=O)c1 [Compound 23, (S)-2-(3-(BENZO[D][1,3]DIOXOL-5-YL)UREIDO)-N-((2R,6S,8AS,14AS,20S,23AS)-2,6-DIMETHYL-5,8,14,19,23-PENTAOXOOCTADECAHYDRO-1H,5H,14H,19H-PYRIDO[2,1-I]DIPYRROLO[2,1-C:2′,1′-L][1]OXA[4,7,10,13]TETRAAZACYCLOHEXADECIN-20-YL)-3-(M-TOLYL)PROPANAMIDE] | 30.2 ± 11.7 h | 97.1 ± 0.2 | 3.0 ± 0.0 | 1.7 ± 0.1 (≈ 1.36 µg/mL) | – | – | – | –
4 | CCc1ccc(NC(=O)N[C@@H](Cc2cccc(C)c2)C(=O)N[C@@H]2C(=O)N3C[C@H](O)C[C@H]3C(=O)N3CCOC[C@H]3C(=O)N[C@@H](C)C(=O)N3C[C@H](C)C[C@H]3C(=O)O[C@H]2C)cc1 [Compound 24, (S)-2-(3-(4-ETHYLPHENYL)UREIDO)-N-((6AS,8R,12S,13S,15AS,17R,21S,23AS)-8-HYDROXY-13,17,21-TRIMETHYL-6,11,15,20,23-PENTAOXOOCTADECAHYDRO-6H,11H,15H-[1,4]OXAZINO[3,4-I]DIPYRROLO[2,1-C:2′,1′-L][1]OXA[4,7,10,13]TETRAAZACYCLOHEXADECIN-12-YL)-3-(M-TOLYL)PROPANAMIDE] ({NH(4-Et-phenyl)-CO}-[Phe(3-Me)][aThr][Hyp][Morpholine(3S-CO)]A[Pro(4R-Me)]; ester 2-C) | 4.89 ± 0.67 h | 97.7 ± 0.2 | 48.4 ± 0.7 | 43.7 ± 0.9 (≈ 35.7 µg/mL) | – | – | – | –
5 | CCc1ccc(NC(=O)N[C@@H](Cc2cccc(C)c2)C(=O)N[C@@H]2C(=O)N3C[C@H](O)C[C@H]3C(=O)N3CCCC[C@H]3C(=O)N[C@@H](C)C(=O)N3C[C@H](C)C[C@H]3C(=O)O[C@H]2C)cc1 [Compound 25, (S)-2-(3-(4-ETHYLPHENYL)UREIDO)-N-((2R,6S,8AS,14AS,16R,20S,21S,23AS)-16-HYDROXY-2,6,21-TRIMETHYL-5,8,14,19,23-PENTAOXOOCTADECAHYDRO-1H,5H,14H,19H-PYRIDO[2,1-I]DIPYRROLO[2,1-C:2′,1′-L][1]OXA[4,7,10,13]TETRAAZACYCLOHEXADECIN-20-YL)-3-(M-TOLYL)PROPANAMIDE] ({NH(4-Et-phenyl)-CO}-[Phe(3-Me)][aThr][Hyp][Pip]A[Pro(4R-Me)]; ester 2-C) | 15.19 ± 2.47 h | 99.2 ± 0.3 | 9.0 ± 0.3 | 18.6 ± 1.17 (≈ 15.2 µg/mL) | – | – | – | –
6 | Cc1ccc(NC(=O)N[C@@H](Cc2cccc(C)c2)C(=O)N[C@@H]2C(=O)N3C[C@H](O)C[C@H]3C(=O)N3CCCC[C@H]3C(=O)N[C@@H](C)C(=O)N3C[C@H](C)C[C@H]3C(=O)O[C@H]2C)cc1 [Compound 26, (S)—N-((2R,6S,8AS,14AS,16R,20S,21S,23AS)-16-HYDROXY-2,6,21-TRIMETHYL-5,8,14,19,23-PENTAOXOOCTADECAHYDRO-1H,5H,14H,19H-PYRIDO[2,1-I]DIPYRROLO[2,1-C:2′,1′-L][1]OXA[4,7,10,13]TETRAAZACYCLOHEXADECIN-20-YL)-3-(M-TOLYL)-2-(3-(P-TOLYL)UREIDO)PROPANAMIDE] ({NH(4-Me-phenyl)-CO}-[Phe(3-Me)][aThr][Hyp][Pip]A[Pro(4R-Me)]; ester 2-C) | – | – | – | – | 2.66 ± 0.3 h | 98.8 ± 0.1 | 45.3 ± 1.89 (≈ 36.3 µg/mL) | 47.7 ± 0.4
7 | Cc1cccc(C[C@H](NC(=O)Nc2ccc3c(c2)OCCO3)C(=O)N[C@@H]2C(=O)N3C[C@H](O)C[C@H]3C(=O)N3CCOC[C@H]3C(=O)N[C@@H](C)C(=O)N3C[C@H](C)C[C@H]3C(=O)O[C@H]2C)c1 [Compound 27, (S)-2-(3-(2,3-DIHYDROBENZO[B][1,4]DIOXIN-6-YL)UREIDO)-N-((6AS,8R,12S,13S,15AS,17R,21S,23AS)-8-HYDROXY-13,17,21-TRIMETHYL-6,11,15,20,23-PENTAOXOOCTADECAHYDRO-6H,11H,15H-[1,4]OXAZINO[3,4-I]DIPYRROLO[2,1-C:2′,1′-L][1]OXA[4,7,10,13]TETRAAZACYCLOHEXADECIN-12-YL)-3-(M-TOLYL)PROPANAMIDE] ({X3-CO}-[Phe(3-Me)][aThr][Hyp][Morpholine(3S-CO)]A[Pro(4R-Me)]; ester 2-C) | 0.49 ± .495 h | 91.1 ± 1.1 | – | 45.6 ± 5.6 (≈ 38.7 µg/mL) | – | – | – | –
8 | Cc1cccc(C[C@H](NC(=O)Nc2ccc3c(c2)OCCO3)C(=O)N[C@@H]2C(=O)N3C[C@H](O)C[C@H]3C(=O)N3CCCC[C@H]3C(=O)N[C@@H](C)C(=O)N3C[C@H](C)C[C@H]3C(=O)O[C@H]2C)c1 [Compound 28, (S)-2-(3-(2,3-DIHYDROBENZO[B][1,4]DIOXIN-6-YL)UREIDO)-N-((2R,6S,8AS,14AS,16R,20S,21S,23AS)-16-HYDROXY-2,6,21-TRIMETHYL-5,8,14,19,23-PENTAOXOOCTADECAHYDRO-1H,5H,14H,19H-PYRIDO[2,1-I]DIPYRROLO[2,1-C:2′,1′-L][1]OXA[4,7,10,13]TETRAAZACYCLOHEXADECIN-20-YL)-3-(M-TOLYL)PROPANAMIDE] ({X3-CO}-[Phe(3-Me)][aThr][Hyp][Pip]A[Pro(4R-Me)]; ester 2-C) | 0.18 ± .185 h | 92.9 ± 2.9 | 30.2 ± 0.2 | 34.7 ± 4.7 (≈ 29.4 µg/mL) | – | – | – | –
9 | Cc1cccc(C[C@H](NC(=O)Nc2ccc(Cl)cc2F)C(=O)N[C@@H]2C(=O)N3C[C@H](OP(=O)(O)O)C[C@H]3C(=O)N3CCCC[C@H]3C(=O)N[C@@H](C)C(=O)N3C[C@H](C)C[C@H]3C(=O)O[C@H]2C)c1 [Compound 29, (2R,6S,8AS,14AS,16R,20S,21S,23AS)-20-((S)-2-(3-(4-CHLORO-2-FLUOROPHENYL)UREIDO)-3-(M-TOLYL)PROPANAMIDO)-2,6,21-TRIMETHYL-5,8,14,19,23-PENTAOXOOCTADECAHYDRO-1H,5H,14H,19H-PYRIDO[2,1-I]DIPYRROLO[2,1-C:2′,1′-L][1]OXA[4,7,10,13]TETRAAZACYCLOHEXADECIN-16-YL DIHYDROGEN PHOSPHATE] ({NH(4-Cl-2-F-phenyl)-CO}-[Phe(3-Me)][aThr][X5][Pip]A[Pro(4R-Me)]; ester 2-C) | – | – | – | – | >4 h | 98.8 ± 8.8 | 66.6 ± 6.6 | 58.7 ± 8.7
10 | Cc1ccc(NC(=O)N[C@@H](Cc2cccc(C)c2)C(=O)N[C@@H]2C(=O)N3C[C@H](O)C[C@H]3C(=O)N3CCN(C)C[C@H]3C(=O)N[C@@H](C)C(=O)N3C[C@H](C)C[C@H]3C(=O)O[C@H]2C)cc1 [Compound 30, (S)—N-((6AS,8R,12S,13S,15AS,17R,21S,23AS)-8-HYDROXY-2,13,17,21-TETRAMETHYL-6,11,15,20,23-PENTAOXOOCTADECAHYDRO-2H,6H,11H,15H-PYRAZINO[2,1-I]DIPYRROLO[2,1-C:2′,1′-L][1]OXA[4,7,10,13]TETRAAZACYCLOHEXADECIN-12-YL)-3-(M-TOLYL)-2-(3-(P-TOLYL)UREIDO)PROPANAMIDE] ({NH(4-Me-phenyl)-CO}-[Phe(3-Me)][aThr][Hyp][Piperazine(2S-CO,4-Me)]A[Pro(4R-Me)]; ester 2-C) | – | – | – | – | 1.30 ± .305 h | 94.8 ± 4.8 | 68.8 ± 8.8 (≈ 56.2 µg/mL) | 54.5 ± 4.5
11 | Cc1cccc(C[C@H](NC(=O)Nc2ccc(Cl)cc2F)C(=O)N[C@@H]2C(=O)N3C[C@H](O)C[C@H]3C(=O)N3CCN(C)C[C@H]3C(=O)N[C@@H](C)C(=O)N3C[C@H](C)C[C@H]3C(=O)O[C@H]2C)c1 [Compound 31, (S)-2-(3-(4-CHLORO-2-FLUOROPHENYL)UREIDO)-N-((6AS,8R,12S,13S,15AS,17R,21S,23AS)-8-HYDROXY-2,13,17,21-TETRAMETHYL-6,11,15,20,23-PENTAOXOOCTADECAHYDRO-2H,6H,11H,15H-PYRAZINO[2,1-I]DIPYRROLO[2,1-C:2′,1′-L][1]OXA[4,7,10,13]TETRAAZACYCLOHEXADECIN-12-YL)-3-(M-TOLYL)PROPANAMIDE] ({NH(4-Cl-2-F-phenyl)-CO}-[Phe(3-Me)][aThr][Hyp][Piperazine(2S-CO,4-Me)]A[Pro(4R-Me)]; ester 2-C) | 3.87 ± .875 h | 97.9 ± 7.9 | 54.7 ± 4.7 | 68.9 ± 8.9 (≈ 58.9 µg/mL) | – | – | – | –
